≈ marks a conversion by molar mass, not a printed value. Where “and” joins values, the source holds several entries; their conditions need not be identical. Equal values may be shown once. Read-outs that look alike come from different tables or passages of the source.
What was measured:
[1] = tested on: M. smegmatis ATCC 700084; assay: In vitro antimycobacterial evaluation (MIC); format: cell-based, Mycobacterium smegmatis; conditions: Mycolicibacterium smegmatis, ATCC700084
[2] = tested on: methicillin-resistant S. aureus 63718 (MRSA3); assay: MBC, agar aliquot subculture method; format: cell-based; conditions: Staphylococcus aureus; MRSA 63718
[3] = tested on: S. aureus ATCC 29213; assay: MTT assay, inhibition of bacterial respiration; format: cell-based, Staphylococcus aureus
Text: The MTT assay can be used to assess cell growth by measuring respiration. Respiratory activity of bacterial cells (which is finally reflected in their viability) less than 70% after exposure to the MIC values for each tested compound is considered as a positive result of this assay. This low level of cell oxidative metabolism indicates inhibition of cell growth by inhibition of respiration. The lowest multiples of MIC values that achieved more than 70% inhibition of S. aureus ATCC 29213 viability (%) are shown in Table 3.
The percent inhibition of respiration of S. aureus ATCC 29213 was determined through the MTT assay. The assay was performed as described recently. The percent viability is calculated through the comparison of a measured value and that of the uninhibited control: % viability = OD570E/OD570P × 100, where OD570E is the reading from the compound-exposed cells, while OD570P is the reading from the uninhibited cells (positive control). Cytotoxic potential is determined by a percent viability of <70% [46, 47].

[4] = tested on: E. faecalis/VRE; assay: Anti-enterococcal activity, summary over strains; format: cell-based, Enterococcus faecalis
[5] = tested on: M. smegmatis and M. marinum; assay: Antimycobacterial activity, summary over both strains; format: cell-based; conditions: average over the named compounds and strains; read-out: average MIC against M. smegmatis and M. marinum
[6] = tested on: methicillin-resistant S. aureus SA 3202 (MRSA1); assay: MBC, agar aliquot subculture method; format: cell-based; conditions: Staphylococcus aureus; MRSA SA 3202
[7] = tested on: vancomycin-resistant E. faecalis VRE 342B (VRE1); assay: MIC, microtitration broth method; format: cell-based, Enterococcus faecalis
[8] = tested on: Mycobacterium marinum CAMP 5644; assay: In vitro antimycobacterial evaluation (MIC); format: cell-based
[9] = tested on: methicillin-resistant S. aureus SA 630 (MRSA2); assay: MBC, agar aliquot subculture method; format: cell-based; conditions: Staphylococcus aureus; MRSA SA 630
[10] = tested on: vancomycin-resistant E. faecalis VRE 368 (VRE2); assay: MBC, agar aliquot subculture method; format: cell-based, Enterococcus faecalis
[11] = tested on: vancomycin-resistant E. faecalis VRE 725B (VRE3); assay: MIC, microtitration broth method; format: cell-based, Enterococcus faecalis
[12] = tested on: vancomycin-resistant E. faecalis VRE 342B (VRE1); assay: MBC, agar aliquot subculture method; format: cell-based, Enterococcus faecalis
[13] = tested on: vancomycin-resistant E. faecalis VRE 725B (VRE3); assay: MBC, agar aliquot subculture method; format: cell-based, Enterococcus faecalis
[14] = tested on: Enterococcus faecalis ATCC 29212; assay: MBC, agar aliquot subculture method; format: cell-based; conditions: ATCC29212, E. faecalis reference strain
[15] = tested on: methicillin-resistant S. aureus SA 630 (MRSA2); assay: MIC, microtitration broth method; format: cell-based; conditions: Staphylococcus aureus; MRSA SA 630
[16] = tested on: Staphylococcus aureus ATCC 29213; assay: MBC, agar aliquot subculture method; format: cell-based; conditions: ATCC29213, S. aureus ATCC 29213
[17] = tested on: human monocytic leukemia cell line THP-1; assay: In vitro cell viability (cytotoxicity screening); format: cell-based; conditions: 24 h, medium with 10% FBS, ± SD, n = 6
Description: The investigated anilides can be divided into three groups. […] Higher concentrations (than 10 or 30 µM) were not possible to evaluate due to precipitation of the tested compounds in water medium. Based on all these observations, it can be concluded that the high antimicrobial activity of 3,5-CF3-substituted compounds is associated with significant cytotoxic effect against eukaryotic cells. On the other hand, the other still effective compounds, especially agents 1j and 1o, have an insignificant toxic effect, which makes them interesting for further study.
Human monocytic leukemia THP-1 cells obtained from the European Collection of Cell Cultures (ECACC, Salisbury, UK) were used for in vitro antiproliferative assays. A recently described procedure was used.

[18] = tested on: vancomycin-resistant E. faecalis VRE 368 (VRE2); assay: MIC, microtitration broth method; format: cell-based, Enterococcus faecalis
[19] = tested on: Enterococcus faecalis ATCC 29212; assay: MIC, microtitration broth method; format: cell-based; conditions: ATCC29212, E. faecalis reference strain
[20] = tested on: Staphylococcus aureus ATCC 29213; assay: MIC, microtitration broth method; format: cell-based; conditions: ATCC29213, S. aureus ATCC 29213
[21] = tested on: methicillin-resistant S. aureus SA 3202 (MRSA1); assay: MIC, microtitration broth method; format: cell-based; conditions: Staphylococcus aureus; MRSA SA 3202
[22] = Lipophilicity determination by RP-HPLC; format: physicochemical; conditions: RP-HPLC, logarithm of capacity factor k
Description: It is evident from the graphs in Figure 1 that the correlation coefficients of the dependences of log k/log D6.5/log D7.4 have a value of r = 0.999 (n = 32), which means that the investigated compounds behave insignificantly differently in aqueous media with different pH. Moreover, lipophilicity was calculated as log P and Clog P using two prediction programs. […] Therefore, only log P values predicted by ACD/Percepta can be used for correlations with experimental values. These matches are shown in the graphs in Figure 2, and according to the correlation coefficient r~0.940 (n = 32), it can be argued that even the predicted lipophilicity values correlate with the experimentally measured ones. However, the largest variations were observed (no difference for series 1, 2) for compounds substituted with 2-Cl, 2-CF3, 2,5-Cl, 4-F, 4-CF3, and 3,5-F, 3,5-Cl. These are mainly substituents capable of forming hydrogen and other types of non-bonding interactions both with the surrounding environment and within the molecule. Overall, series 1 (3-CF3) is less lipophilic than series 2 (4-CF3), but the differences in the experimental data are insignificant. Unsubstituted derivatives 1a/2a are the least lipophilic compounds, while derivatives 1o/2o (3,5-Cl) and 1p/2p (3,5-CF3) are the most lipophilic compounds.
Experimental determination of lipophilicity values (log k, log D6.5, and log D7.4) was performed under the same conditions and on the same device as described by Strharsky et al..

[23] = tested on: methicillin-resistant S. aureus 63718 (MRSA3); assay: MIC, microtitration broth method; format: cell-based; conditions: Staphylococcus aureus; MRSA 63718
[24] = tested on: S. aureus/MRSA; assay: Antistaphylococcal activity, summary over strains; format: cell-based, Staphylococcus aureus
[25] = tested on: S. aureus/MRSA; design: method as in ref 26, 51 = [26]; PMID 30087309; doi:10.3390/ijms19082318; 26. Pospisilova S. Kos J. Michnova H. Kapustikova I. Strharsky T. Oravec M. Moricz A.M. Bakonyi J. Kauerova T. Kollar P. Synthesis and spectrum of biological activities of novel N -arylcinnamamides In || [51]; 51. Pospisilova S. Kos J. Michnova H. Strharsky T. Cizek A. Jampilek J. N -Arylcinnamamides as antistaphylococcal agents Proceedings of the 4th International Electronic Conference on Medicinal Chemist; conditions: cited from earlier work
[26] = tested on: staphylococcal biofilm; design: method as in ref 26, 51 = [26]; PMID 30087309; doi:10.3390/ijms19082318; 26. Pospisilova S. Kos J. Michnova H. Kapustikova I. Strharsky T. Oravec M. Moricz A.M. Bakonyi J. Kauerova T. Kollar P. Synthesis and spectrum of biological activities of novel N -arylcinnamamides In || [51]; 51. Pospisilova S. Kos J. Michnova H. Strharsky T. Cizek A. Jampilek J. N -Arylcinnamamides as antistaphylococcal agents Proceedings of the 4th International Electronic Conference on Medicinal Chemist; conditions: cited from earlier work
[27] = tested on: M. tuberculosis H37Ra; design: method as in ref 26 = [26]; PMID 30087309; doi:10.3390/ijms19082318; 26. Pospisilova S. Kos J. Michnova H. Kapustikova I. Strharsky T. Oravec M. Moricz A.M. Bakonyi J. Kauerova T. Kollar P. Synthesis and spectrum of biological activities of novel N -arylcinnamamides In; conditions: average over the named compounds; cited from earlier work
[28] = tested on: S. aureus ATCC 29213; conditions: MTT, cited from earlier work

## O=C(/C=C/c1ccc(C(F)(F)F)cc1)Nc1cc(C(F)(F)F)cc(C(F)(F)F)c1 [2p, (2E)-N-[3,5-bis(Trifluoromethyl)phenyl]-3-[4-(trifluoromethyl)phenyl]prop-2-enamide]
[1]
  MIC: 1.17 µM (≈ 0.5 µg/mL)
[2]
  MBC: 0.293 µM (≈ 0.125 µg/mL)
[3]
  Conc.: lowest multiple of MIC with at least 70% inhibition of respiratory activity: 2× MIC (2× MBC)
  Conc.: the same concentration as multiple of MBC: 2× MIC (2× MBC)
[4]; Enterococcus faecalis, VRE, average over the named compounds and strains, read-out: average MIC against E. faecalis/VRE
  MIC: ~15 µM (≈ 6.41 µg/mL)
[4]; range over E. faecalis and VRE isolates and over the named compounds
  anti-enterococcal MICs/MBCs: 2.34 to 44.5 µM
[5]
  MIC: ~4.1 µM (≈ 1.75 µg/mL)
[6]
  MBC: 0.585 µM (≈ 0.25 µg/mL)
[7]
  MIC: 2.34 µM (≈ 1 µg/mL)
[8]; M. marinum CAMP 5644
  MIC MM: 0.293 – µM
[8]; Mycobacterium marinum, CAMP5644, M. marinum CAMP 5644
  MIC: 0.29 to 22.2 µM (≈ 0.124 to 9.49 µg/mL)
[9]
  MBC: 0.585 µM (≈ 0.25 µg/mL)
[10]
  MBC: 9.36 µM (≈ 4 µg/mL)
[11]
  MIC: 2.34 µM (≈ 1 µg/mL)
[12]
  MBC: 4.68 µM (≈ 2 µg/mL)
[13]
  MBC: 2.34 µM (≈ 1 µg/mL)
[14]
  MBC: 4.68 µM (≈ 2 µg/mL)
[15]
  MIC: 0.293 µM (≈ 0.125 µg/mL)
[16]
  MBC: 0.146 µM (≈ 0.0624 µg/mL)
[17]
  IC50: 8.9 ± 1.3 µM
other
  melting point: 207 to 209 °C
[18]
  MIC: 4.68 µM (≈ 2 µg/mL)
[19]
  MIC: 2.34 µM (≈ 1 µg/mL)
[20]
  MIC: 0.146 µM (≈ 0.0624 µg/mL)
[21]
  MIC: 0.585 µM (≈ 0.25 µg/mL)
[22]
  log k: 1.3665
[23]
  MIC: 0.293 µM (≈ 0.125 µg/mL)
[24]; Staphylococcus aureus, MRSA, average over the named compounds and strains, read-out: average MIC against S. aureus/MRSA
  MIC: ~1.4 µM (≈ 0.598 µg/mL)
[24]; range over S. aureus and MRSA isolates and over the named compounds
  antistaphylococcal MICs/MBCs: 0.15 to 5.57 µM and 0.146 to 5.57 µM

## O=C(/C=C/c1ccccc1)Nc1cccc(C(F)(F)F)c1 [3a]
[25]
  bactericidal effect: bactericidal effect in concentrations close to MICs
[26]
  effect on staphylococcal biofilm: ability to inhibit the growth of staphylococcal biofilm and disrupted mature biofilm in concentrations close to MICs
[27]
  average MIC against M. tuberculosis H37Ra: ~ 24 µM

## O=C(/C=C/c1ccccc1)Nc1ccc(C(F)(F)F)c(F)c1 [3c]
[28]; at MIC value
  inhibition of S. aureus respiration: 86%

## O=C(/C=C/c1ccc(Cl)c(Cl)c1)Nc1cc(C(F)(F)F)cc(C(F)(F)F)c1 [4f]
[28]; at 0.25× MIC
  inhibition of S. aureus respiration: 96%
